For five compounds, Ki results are on record in patent publication US6077845A, “Acridin derivatives” (Gruenenthal GmbH, priority 1998, dated 2000).

In the experiment the target is T1, δ-opiate receptor (Rattus norvegicus, UniProt P33533).
T1 construct: from tissue; host or cells: rat brain (male Wistar) without cerebellum and medulla oblongata, membrane homogenate
Kind of experiment: δ-Opiate receptor binding ([3H]-2-D-Ala-deltorphin II displacement, rat brain membrane homogenate). Set-up: species or system rat (male Wistar). To be noted: 1 nmole/l [3H]-2-D-Ala-deltorphin II, 90 minutes at 37° C., pH 7.4, mean ± standard deviation of three independent tests, Ki from IC50 by Cheng-Prussoff. On the procedure:
δ-Opiate receptor binding investigations
Tests to determine the affinity of the compounds of formula I according to the invention for δ-opiate receptors were performed on meninx homogenates (homogenates of rat's brain, without the cerebellum and medulla oblongata, taken from male Wistar rats).
For this purpose, freshly prepared rat brains were each homogenised, while being cooled in ice, in 50 mmoles/l Tris-HCl (pH 7.4) and were centrifuged for 10 minutes at 5000 g and […]. After decantation and after rejecting the supernatant liquor, followed by renewed take-up and homogenization of the membrane sediment in 50 mmoles/l Tris-HCl (pH 7.4), the homogenate was subsequently centrifuged for 20 minutes at 20,000 g and […]. This washing step was repeated again. Thereafter, the supernatant liquor was decanted and the membrane sediment was homogenized in cold 50 mmoles/l Tris-HCl, 20% glycerol (w/v), 0.01% bacitracin (w/v) (pH 7.4) and aliquots thereof were frozen until required for testing. For the receptor binding tests, the aliquots were thawed and were diluted 1:10 with the binding test buffer. A solution of […] MgCl2 (pH 7.4), supplemented by 0.1 (w/v) bovine serum albumin, was used as the buffer in the binding tests; 1 nmole/l [^3 H]-2-D-Ala-deltorphin II was used as the radioactive ligand. The proportion of non-specific binding was determined in the presence of 10 μmoles/l naloxon.
In further batches, the compounds according to the invention were added in a series of concentrations and the displacement of the radioactive ligand from its specific binding site was determined. The batches concerned, which were each tested in triplicate, were incubated for 90 minutes at 37° C. and were subsequently harvested in order to determine the radioactive ligand which was bound to the membrane homogenate by filtration through a glass fibre filter (GF/B). The glass fiber filter discs were dried, and the radioactivity thereof was measured in a β-counter after adding a scintillator.
The affinity of the compounds according to the invention for the δ-opiate receptor was calculated as the IC50 value according to the law of mass action, by means of nonlinear regression. Ki values were calculated from the IC50 values using the Cheng-Prussoff equation. The Ki values in Table 1 are given as the mean value±standard deviation of three tests which were independent of each other.

Structures can show the parent of a compound that is named as a salt.

T1 sequence (P33533 whole entry): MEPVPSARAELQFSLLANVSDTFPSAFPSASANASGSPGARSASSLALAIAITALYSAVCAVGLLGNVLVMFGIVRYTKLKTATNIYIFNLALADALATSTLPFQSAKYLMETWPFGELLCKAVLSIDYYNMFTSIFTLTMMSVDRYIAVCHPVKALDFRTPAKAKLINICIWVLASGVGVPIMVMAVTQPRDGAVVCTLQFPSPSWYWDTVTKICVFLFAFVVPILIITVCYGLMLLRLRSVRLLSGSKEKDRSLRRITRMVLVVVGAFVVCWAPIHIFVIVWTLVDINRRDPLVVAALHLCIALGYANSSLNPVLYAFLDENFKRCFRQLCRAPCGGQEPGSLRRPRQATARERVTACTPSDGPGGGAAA

What is called Ki is a dissociation constant, usually derived from enzyme kinetics or from competition with a known ligand. Read a high Ki as a looser hold on the target. `COc1cccc([C@@H]2c3cc4ccccc4nc3CC[C@H]2CN(C)C)c1` (racemic) [rac-trans-[1-(3-methoxy-phenyl)-1,2,3,4-tetrahydro-acridin-2-yl-methyl]-dimethylamine hydrochloride] displayed a Ki of 127 nM.
In turn, `CN(C)CC1=C(c2cccc(O)c2)c2cc3ccccc3nc2CC1(C)C` [3-(2-dimethylaminomethyl-3,3-dimethyl-3,4-dihydro-acridin-1-yl)-phenol hydrochloride] showed a Ki of 29 nM.
Take `CN(C)C[C@H]1CCc2nc3ccccc3cc2[C@@H]1c1cccc(O)c1` (relative stereo) [rac-trans-[3-(2-dimethylaminomethyl-1,2,3,4-tetrahydro-acridin-1-yl)]-phenol hydrochloride]: the affinity corresponds to a Ki of 4.17 nM.
Turning to `COc1cccc(C2=C(CN(C)C)CCc3nc4ccccc4cc32)c1` [[1-(3-methoxy-phenyl)-3,4-dihydro-acridin-2-yl-methyl]-dimethylamine hydrochloride], the Ki was 133 nM.
In turn, `CN(C)CC1=C(c2cccc(O)c2)c2cc3ccccc3nc2CC1` [[3-(2-dimethylaminomethyl-3,4-dihydro-acridin-1-yl)]-phenol hydrochloride] yielded an inhibition constant Ki of 3.84 nM.
